Results published in a melting point compilation (Tetko et al.; mined from patent text by program, amines drawn as free bases though some values may be those of a salt).

First: CCc1c(O)cc(O)c(C(=O)c2ccc(OC)cc2)c1CC(=O)N(CCO)CCN1CCOCC1
Second: COc1ccc2c3c(c(=O)oc2c1)CN(Cc1ccc(C)cc1)CC3
The melting point of the first is higher: 235 to 237 °C for the first, 147 to 149 °C for the second.

Compared with COC(CNC(=O)N(N=Cc1ccccc1)c1cc(Cl)c(Cc2ccc(C(=O)c3ccc(Cl)cc3)cc2)c(Cl)c1)OC, COc1ccc(C(=O)c2ccc(OCc3nc(-c4ccccc4)sc3C)cc2)c(OC(C)(C)C(=O)O)c1 is lower in melting point: 158 to 160 °C for the first, 145 to 147 °C for the second.

Compared with COC(=O)[C@]1(C)Cc2c([nH]c3ccc(Cl)cc23)[C@@H](c2cccc(O)c2)N1 (racemic), COc1cccc(OC)c1CNC(=O)Cc1c(-c2ccccc2C)c2cc(Cl)ccc2oc1=O is lower in melting point: 240 to 241 °C for the first, 194 to 196 °C for the second.

First: O=[N+]([O-])c1cn2c(n1)OC(COc1ccc(N3CCN(CC4CCN(Cc5ccc(C(F)(F)F)cc5)CC4)CC3)cc1)CC2 (stereo not drawn)
Second: Cc1ccccc1OCCCN1CCC(C(O)(c2ccc(F)cc2)c2ccc(F)cc2)CC1
The melting point of the first is higher: 214 to 217 °C for the first, 108 to 109 °C for the second.

Compared with Cc1ccc(S(=O)(=O)N2CCCC2c2cccs2)cc1 (racemic), COc1ccccc1N1CCN(S(=O)(=O)c2ccc(/C=C/C(=O)NO)cc2)CC1 is higher in melting point: 108 °C for the first, 225 to 226 °C for the second.

First: CCNC(=O)c1nc2n(n1)-c1ccc(Cl)cc1C(c1ccccc1F)=NC2
Second: COC(=O)CN1C(=O)CN=C(c2ccccc2Cl)c2ccccc21
The melting point of the first is higher: 232 to 234 °C for the first, 166 to 168 °C for the second.

First: COC(=O)CC1CCN(C(=O)c2cnc(-c3ccc(C(=N)NC(=O)OC)cc3)nc2OC)CC1
Second: CCOc1cccc(-c2ccc(C3CCN(S(=O)(=O)C(C)(C)C(=O)O)CC3)cc2C)n1
The melting point of the first is higher: 193 to 195 °C for the first, 178 to 179 °C for the second.

Compared with CCc1ccc(Nc2c(C#N)cnc3cc(OC)c(OC)cc23)cc1, COc1ccc(CC2=NC(C)(C)CO2)cc1NC(=O)C(C)(C)CCCOc1cc(C)ccc1C is lower in melting point: 248 to 250 °C for the first, 79 to 80 °C for the second.

Compared with COC(=O)C=CC(=O)c1ccc(Oc2ccccc2)cc1, CNC(=O)c1ccccc1NC(=O)COc1ccc(C(C)=O)cc1 is higher in melting point: 88 to 90 °C for the first, 252 to 253 °C for the second.

First: Fc1ccc(-c2n[nH]cc2-c2ccnc(Cl)n2)cc1
Second: COc1cccc2nc(-c3ccc(OCCNC(C)C)c(-c4ccc(S(C)(=O)=O)cc4)n3)[nH]c(=O)c12
The melting point of the first is lower: 204 to 205 °C for the first, 222 to 223 °C for the second.

First: CCOC(=O)C1CCCCC1Nc1cn[nH]c1 (stereo not drawn)
Second: CCC(NC(=O)c1ccccc1)C(=O)OC1CCCCC1 (stereo not drawn)
The melting point of the first is higher: 92 to 94 °C for the first, 60 to 63 °C for the second.

Compared with CCCCc1nc2cc3ccccc3cc2n1Cc1ccc(C#N)cc1, COC(=O)C(=O)c1ccc(OCCOc2ccc3ccccc3c2)cc1F is lower in melting point: 138 °C for the first, 135 to 136 °C for the second.

OC(c1ccc2c(c1)CCN2)(C(F)F)C(F)(F)F (stereo not drawn) and COC1=C(c2cccc(C(F)(F)F)c2)C(=O)N(C(C)(C)C)C1 cannot be ordered by melting point: 129 to 132 °C for the first, 129 °C for the second.

Compared with NC(=O)c1cc(Cl)ccc1SSc1ccc(Cl)cc1C(N)=O, CC(=O)N1CCc2ccc(Cl)cc2C(c2ccc([N+](=O)[O-])cc2)=N1 is lower in melting point: 278 to 282 °C for the first, 227 to 229 °C for the second.

Compared with N#Cc1cccc(C(=O)Cn2cncn2)c1, CSC(C#N)NC(=O)c1cccc(Cl)c1 (stereo not drawn) is lower in melting point: 172 to 173 °C for the first, 115 to 117 °C for the second.

Compared with COc1cc(CCCC2OC(=O)NC2=O)ccc1OCc1coc(-c2ccccc2)n1 (stereo not drawn), Cc1nc2ccc(NC(=O)COCc3ccccc3)cc2c(=O)n1C1CCC(=O)NC1=O (stereo not drawn) is higher in melting point: 134 to 135 °C for the first, 248 to 250 °C for the second.

Compared with CNC(=O)NN=Cc1ncc([N+](=O)[O-])n1C, Cc1cccc(NC(=O)C=Cc2cn(C)nc2[N+](=O)[O-])n1 is lower in melting point: 221 to 223 °C for the first, 191 to 193 °C for the second.

CC(=O)NC[C@H]1CN(c2ccc3c(c2)CC(C)N3C(=O)CO)C(=O)O1 (stereo partly drawn) and CCCCOc1ccc(C(=O)NC[C@@H](C(=O)NO)N2CCN(S(C)(=O)=O)CC2)cc1 cannot be ordered by melting point: 130 to 133 °C for the first, 130 °C for the second.

Compared with CS(=O)(=O)c1ccc(C(O)c2ccc3ccccc3c2)cc1 (stereo not drawn), CC(C)N(CCS(=O)(=O)c1ccc(F)cc1)C(=O)Oc1ccccc1 is lower in melting point: 100 °C for the first, 94 to 95 °C for the second.

First: CCCc1nc2c(N)nc3cc(-c4cccc(C(=O)N(CC)CC)c4)ccc3c2s1
Second: CCCNC(=O)c1nc(-c2ccccc2)c(-c2ccc(=O)n(C(C)C)n2)s1
The melting point of the first is higher: 169 to 172 °C for the first, 141 to 142 °C for the second.

First: COC(=O)C(CC(N)C(=O)O)CC(N)N1C=CC=CC1 (stereo not drawn)
Second: CCCCOc1ccc(C=CC(=O)NCCN(O)C(N)=O)cc1
The melting point of the first is higher: 240 to 242 °C for the first, 127 to 129 °C for the second.

Compared with CCOC1CCC2(CC1)NC(=O)C(c1cc(Br)ccc1C)=C2O (stereo not drawn), CCOC(=O)c1cc2cc(Cl)c(Cl)cc2[nH]1 is higher in melting point: 138 °C for the first, 215 to 218 °C for the second.

First: CCCNC(=O)C1(CCCCO)c2ccccc2-c2ccccc21
Second: CCCCN=C(O)c1c(Cl)c(Sc2ccccc2)c(Sc2ccccc2)c(Cl)c1C(=O)O
The melting point of the first is lower: 73 to 75 °C for the first, 215 to 216 °C for the second.

First: CN1CCN(c2cccc(-n3cnc4cc(C=O)ccc43)c2)CC1
Second: CC(C)c1ccc2c(c1)C(N1CCN(CCCO)CC1)Cc1ccc(F)cc1S2 (stereo not drawn)
The melting point of the first is higher: 199 to 201 °C for the first, 106 to 108 °C for the second.

First: CCOC(=O)c1c(C)nc(N2CCCCC2)c2nccnc12
Second: CCOc1nc(CCO)nc(N2CCc3ccccc3CC2)c1C#N
The melting point of the first is lower: 73 to 74 °C for the first, 108 to 111 °C for the second.

Compared with COC(=O)C=C1NC(C)(CO)COC1=O (stereo not drawn), CNC1CCN(c2c(F)cc3c(=O)c(C(=O)O)cn(C4CC4)c3c2OC)CC1(C)C (stereo not drawn) is higher in melting point: 62 to 63 °C for the first, 246 to 248 °C for the second.

First: CC(=O)OCC1OC(n2cc(Cc3ccc(Br)cc3)c3c(Cl)cccc32)C(OC(C)=O)C(OC(C)=O)C1OC(C)=O (stereo not drawn)
Second: CC(C)CNC(=O)[C@H]1C[C@H](C(=O)OC(C)(C)C)N(C(=O)CNC(=O)Nc2cccc(C(=O)O)c2)[C@@H]1c1ccccc1F (racemic)
The melting point of the first is higher: 223 to 225 °C for the first, 160 °C for the second.

Compared with COc1cc(N(C)C)ccc1C=Nc1cc(Cl)c(N=CN(C)C)c(Cl)c1, CCOC(=O)c1c(C=O)c2c(Cl)cc(Cl)cc2n1S(=O)(=O)c1ccccc1 is higher in melting point: 137 to 139 °C for the first, 226 °C for the second.

First: CCC(C)(C)NC(Nc1ccc2ncsc2c1)=C(C#N)S(C)(=O)=O
Second: CC(C)(C)C(NC(=O)c1ccc(F)cc1)NC(=NC#N)Nc1cccnc1 (stereo not drawn)
The melting point of the first is lower: 112 to 114 °C for the first, 195 to 196 °C for the second.

First: NC(=S)Nc1ccc(Br)cc1
Second: CN(C)C(=O)Nc1ccc(OCCc2ccccc2)c(N)c1
The melting point of the first is higher: 188 to 189 °C for the first, 125 to 126 °C for the second.

First: CN1OC(COCc2ccc(Cl)cc2)CC1(Cn1ccnc1)c1ccc(Cl)cc1 (stereo not drawn)
Second: CC(=O)OCCCc1nc(-c2ccc(Cl)cc2)co1
The melting point of the first is higher: 97 to 100 °C for the first, 37 to 37.5 °C for the second.

First: C#CCc1c(C)nc2c(NCc3c(C)cccc3NC(=O)OC)cc(NC(C)=O)cn12
Second: Cc1cc(C2(C(F)(F)F)C=NC(c3ccccc3)C2)ccc1NC(=O)c1cccc(I)c1C(=O)NC(C)C (stereo not drawn)
The melting point of the first is higher: 125 to 128 °C for the first, 118 to 120 °C for the second.

First: O=C(NCC/C=C\CCCNC(=O)c1ccc(OC(F)(F)F)cc1)c1ccc(OC(F)(F)F)cc1
Second: Cc1ccc(-c2c(C(=O)NCc3cc(C(F)(F)F)cc(C(F)(F)F)c3)n(CCCCCO)c(=O)c3ncccc23)cc1
The melting point of the first is lower: 111 to 113 °C for the first, 136 to 137 °C for the second.

Compared with COCOc1cc([N+](=O)[O-])c(F)cc1Cl, CN1C(=O)N(c2ccc([N+](=O)[O-])c(C(F)(F)F)c2)C(=O)C1(C)CF (stereo not drawn) is higher in melting point: 78 to 80 °C for the first, 118 to 119 °C for the second.

First: COc1ccc(C2=NN(C3CCSCC3)C(=O)[C@H]3CC=CC[C@@H]23)cc1Cl (relative stereo)
Second: CCOc1ccc(-c2c(Cl)c(CN3C(=O)CCC3=O)nc3sc4c(c23)CCN(C(C)=O)C4)cc1
The melting point of the first is lower: 170 to 171 °C for the first, 260 to 262 °C for the second.

CCCSCCNC(=O)n1cc(F)c(=O)[nH]c1=O and CC(C)OC(=O)c1cc(-n2c(=O)c3c(n(C)c2=O)CCC3)c(F)cc1F cannot be ordered by melting point: 112 to 114 °C for the first, 112 to 115 °C for the second.

Compared with Cc1c(F)c(F)cc2c1c(=O)c(C(=O)O)cn2-c1ccc(F)cc1, CSc1ccc2oc3cc(F)ccc3c(=O)c2c1 is lower in melting point: 255 to 257 °C for the first, 113 to 116 °C for the second.

Compared with O=Cc1ccccc1NC1CCN(Cc2ccccc2)CC1, O=C(NC1CCN(Cc2ccccc2)CC1)c1cccc(OCc2ccc3ccccc3n2)c1 is lower in melting point: 87 to 90 °C for the first, 60 to 62 °C for the second.

Compared with COC(=O)c1ccccc1S(=O)(=O)NC(=O)Nc1nc(CSc2ccccn2)cc(OC)n1, CCOC(=O)C(=C1SC(=S)N(CC(=O)O)C1=O)c1csc(NC(=O)c2ccccc2)n1 is higher in melting point: 175 to 181 °C for the first, 278 to 281 °C for the second.

First: CCOC(=O)c1cc(C(=O)NC)nc(C(=O)NC)c1
Second: COC(=O)Cc1noc2cc(F)ccc12
The melting point of the first is higher: 183 to 184 °C for the first, 60 to 61 °C for the second.

First: CN(C)CCCNC(CC(=O)O)C(=O)OC1CCCCC1 (stereo not drawn)
Second: N#CCCN(C(N)=O)C1CCCCC1
The melting point of the first is higher: 150 to 152 °C for the first, 110 to 112 °C for the second.

First: CCCc1c(C(=O)CC(C)OC)c2ccc(C(N)=O)cc2n1Cc1cc2c(cc1Cl)OCO2 (stereo not drawn)
Second: O=C1CC(c2cccc(-c3csc(C(=O)NCCO)n3)c2)=Nc2ccc(-n3cccc3)cc2N1
The melting point of the first is lower: 190 to 192 °C for the first, 236 to 238 °C for the second.

First: Cc1c(C(=O)O)nc2c(=O)[nH]c3cc(C(F)(F)F)ccc3n12
Second: CC[C@@H]1O[C@](/C=C/C2CC2)(C(F)(F)F)c2cc(Cl)ccc2NC1=O (relative stereo)
The melting point of the first is higher: greater than 250 °C for the first, 147 to 148 °C for the second.

Compared with N#Cc1cccc2c1CCC2=NO, O=NN1CCc2cc(Cl)ccc21 is lower in melting point: 200 to 202 °C for the first, 120 to 122 °C for the second.

First: CCC(=O)Nc1nnc(S)s1
Second: CC(C(=O)N(C)C)n1cc(Br)c(-c2ccccc2)n1 (stereo not drawn)
The melting point of the first is higher: 234 to 237 °C for the first, 90.5 to 91.5 °C for the second.

Nc1c(Cl)ncnc1NCc1ccccn1 and N#CCc1ccc(-n2cc(Cl)cn2)cc1Cl are the same in melting point: 140 °C for the first, 140 °C for the second.

First: Cc1cc2c(s1)Nc1ccccc1N=C2N1CCN[C@@H](CCc2ccccc2)C1
Second: OC(c1cccc(F)c1)C1CCCCN1 (stereo not drawn)
The melting point of the first is lower: 75 to 84 °C for the first, 146 to 148 °C for the second.

First: CC(C)(C)C(O)(COc1ccc(F)cc1)C(C)(F)n1cncn1 (stereo not drawn)
Second: Cc1cc(O)c(CCN(C)C)c(C)c1C
The melting point of the first is higher: 90 to 93 °C for the first, 72 °C for the second.

First: CC(CCCCO)Oc1c(I)cc(I)cc1I (stereo not drawn)
Second: O=C(Nc1cc2nc(-c3ccc(C(=O)C45CC6CC(CC(C6)C4)C5)cc3)[nH]c2cn1)C12CC3CC(CC(C3)C1)C2
The melting point of the first is lower: 79 to 80 °C for the first, 265 °C for the second.
